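The concentration for 50% growth inhibition is given as GI50. TGI denotes the concentration required for complete inhibition of growth.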
Tests used:
Test in all cases: DTP human tumour cell line panel, 384-well format
[1] = tested on: OVCAR-5 ovarian
[2] = tested on: CAKI-1 renal
[3] = tested on: T-47D breast
[4] = tested on: SR leukemia
[5] = tested on: KM12 colon
[6] = tested on: NCI-H226 lung
[7] = tested on: 786-0 renal
[8] = tested on: HCT-15 colon
[9] = tested on: MDA-MB-435 melanoma
[10] = tested on: NCI-H460 NSCLC
[11] = tested on: RXF 393 renal
[12] = tested on: OVCAR-8 ovarian
[13] = tested on: SF-268 CNS
[14] = tested on: M14 melanoma
[15] = tested on: LOX IMVI melanoma
[16] = tested on: SK-MEL-5 melanoma
[17] = tested on: CCRF-CEM leukemia
[18] = tested on: HOP-92 NSCLC
[19] = tested on: SF-295 CNS
[20] = tested on: UACC-62 melanoma
[21] = tested on: OVCAR-3 ovarian
[22] = tested on: SK-MEL-28 melanoma
[23] = tested on: UACC-257 melanoma
[24] = tested on: TK-10 renal
[25] = tested on: MALME-3M melanoma
[26] = tested on: NCI/ADR-RES ovarian
[27] = tested on: SNB-19 CNS
[28] = tested on: SN12C renal
[29] = tested on: IGROV1 ovarian

`Cc1cc2c(C(=O)NC[C@H](C)c3ccccc3)c(O)c(O)cc2c(O)c1-c1c(C)cc2c(C(=O)NC[C@H](C)c3ccccc3)c(O)c(O)cc2c1O` gave a TGI [1] of 1980 nM, a GI50 [2] of 657 nM and a TGI [2] of 2500 nM. The GI50 [3] was 382 nM, the TGI [3] was 1590 nM and the GI50 [4] was 196 nM. For the same compound, the TGI [4] was 369 nM, the GI50 [5] was 390 nM and the TGI [5] was 1360 nM. It also gave a GI50 [6] of 1130 nM, a TGI [6] of 2600 nM and a GI50 [7] of 1170 nM. The TGI [7] was 2800 nM, the GI50 [8] was 545 nM and the TGI [8] was 2880 nM. It also gave a GI50 [9] of 540 nM, a TGI [9] of 2700 nM and a GI50 [10] of 204 nM. The TGI [10] was 424 nM, the GI50 [11] was 201 nM and the TGI [11] was 625 nM. For the same compound, the GI50 [12] was 1120 nM, the TGI [12] was 2490 nM and the GI50 [13] was 523 nM. For the same compound, the TGI [13] was 1810 nM, the GI50 [14] was 394 nM and the TGI [14] was 1360 nM. For the same compound, the GI50 [15] was 1740 nM, the TGI [15] was 3270 nM and the GI50 [16] was 378 nM. For the same compound, the TGI [16] was 1580 nM, the GI50 [17] was 243 nM and the TGI [17] was 514 nM. The GI50 [18] was 461 nM, the TGI [18] was 1560 nM and the GI50 [19] was 345 nM. For the same compound, the TGI [19] was 1120 nM, the GI50 [20] was 486 nM and the TGI [20] was 1630 nM. It also gave a GI50 [21] of 613 nM, a TGI [21] of 2080 nM and a GI50 [22] of 606 nM. It also gave a TGI [22] of 2400 nM, a GI50 [23] of 1610 nM and a TGI [23] of 3570 nM. It also gave a GI50 [24] of 1280 nM, a TGI [24] of 7080 nM and a GI50 [25] of 1590 nM. It also gave a TGI [25] of 4430 nM, a GI50 [26] of 2150 nM and a TGI [26] of 5330 nM. The GI50 [27] was 413 nM, the TGI [27] was 1440 nM and the GI50 [28] was 837 nM. The TGI [28] was 2300 nM, the GI50 [29] was 495 nM and the TGI [29] was 2920 nM.

— PubChem BioAssay (NCI)
